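The compound was tested at five concentrations on cells cultured in 96-well plates, with a 48-hour exposure period. Definition used: TGI = concentration required for complete inhibition of growth.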
Tests used:
Test in all cases: growth of human tumour cells (NCI), 48 h
MDA-N = system: MDA-N
NCI/ADR-RES ovarian = system: NCI/ADR-RES ovarian
K-562 leukemia = system: K-562 leukemia
ACHN renal = system: ACHN renal
KM12 colon = system: KM12 colon
MDA-MB-231 breast = system: MDA-MB-231 breast
SN12C renal = system: SN12C renal
SF-539 CNS = system: SF-539 CNS
M14 melanoma = system: M14 melanoma
A498 renal = system: A498 renal
HOP-62 NSCLC = system: HOP-62 NSCLC
HCT-116 colon = system: HCT-116 colon
RPMI-8226 leukemia = system: RPMI-8226 leukemia
SK-MEL-28 melanoma = system: SK-MEL-28 melanoma
SK-MEL-5 melanoma = system: SK-MEL-5 melanoma
SK-MEL-2 melanoma = system: SK-MEL-2 melanoma
DU-145 prostate = system: DU-145 prostate
MOLT-4 leukemia = system: MOLT-4 leukemia
HL-60(TB) leukemia = system: HL-60(TB) leukemia
NCI-H226 lung = system: NCI-H226 lung
OVCAR-5 ovarian = system: OVCAR-5 ovarian
SK-OV-3 ovarian = system: SK-OV-3 ovarian
SW-620 colon = system: SW-620 colon
786-0 renal = system: 786-0 renal
T-47D breast = system: T-47D breast
PC-3 prostate = system: PC-3 prostate
UACC-62 melanoma = system: UACC-62 melanoma
UO-31 renal = system: UO-31 renal
MDA-MB-435 = system: MDA-MB-435
SNB-19 CNS = system: SNB-19 CNS
CAKI-1 renal = system: CAKI-1 renal
EKVX NSCLC = system: EKVX NSCLC
BT-549 breast = system: BT-549 breast
HT29 colon = system: HT29 colon
NCI-H23 lung = system: NCI-H23 lung
SF-295 CNS = system: SF-295 CNS
HCT-15 colon = system: HCT-15 colon
TK-10 renal = system: TK-10 renal
U251 CNS = system: U251 CNS
OVCAR-4 ovarian = system: OVCAR-4 ovarian
OVCAR-3 ovarian = system: OVCAR-3 ovarian
A549 NSCLC = system: A549 NSCLC
IGROV1 ovarian = system: IGROV1 ovarian
LOX IMVI melanoma = system: LOX IMVI melanoma
MCF7 breast = system: MCF7 breast
MALME-3M melanoma = system: MALME-3M melanoma
HS 578T breast = system: HS 578T breast
UACC-257 melanoma = system: UACC-257 melanoma
COLO 205 colon = system: COLO 205 colon
OVCAR-8 ovarian = system: OVCAR-8 ovarian
CCRF-CEM leukemia = system: CCRF-CEM leukemia
RXF 393 renal = system: RXF 393 renal
SF-268 CNS = system: SF-268 CNS
HOP-92 NSCLC = system: HOP-92 NSCLC
NCI-H522 lung = system: NCI-H522 lung
SNB-75 CNS = system: SNB-75 CNS
HCC-2998 colon = system: HCC-2998 colon
NCI-H460 lung = system: NCI-H460 lung
SR leukemia = system: SR leukemia

## CN(C(=S)Cc1ccc(Cl)c(Cl)c1)C1CCCC[C@@H]1N1CCCC1 (stereo partly specified)
MDA-N
  TGI: 36.2 µM
NCI/ADR-RES ovarian
  TGI: > 100 µM
K-562 leukemia
  TGI: > 100 µM
ACHN renal
  TGI: > 100 µM
KM12 colon
  TGI: > 100 µM
MDA-MB-231 breast
  TGI: > 100 µM
SN12C renal
  TGI: > 100 µM
SF-539 CNS
  TGI: > 100 µM
M14 melanoma
  TGI: 37.2 µM
A498 renal
  TGI: 60.6 µM
HOP-62 NSCLC
  TGI: > 100 µM
HCT-116 colon
  TGI: > 100 µM
RPMI-8226 leukemia
  TGI: > 100 µM
SK-MEL-28 melanoma
  TGI: 31.6 µM
SK-MEL-5 melanoma
  TGI: 33 µM
SK-MEL-2 melanoma
  TGI: > 100 µM
DU-145 prostate
  TGI: > 100 µM
MOLT-4 leukemia
  TGI: > 100 µM
HL-60(TB) leukemia
  TGI: > 100 µM
NCI-H226 lung
  TGI: > 100 µM
OVCAR-5 ovarian
  TGI: > 100 µM
SK-OV-3 ovarian
  TGI: > 100 µM
SW-620 colon
  TGI: 48.4 µM
786-0 renal
  TGI: 55 µM
T-47D breast
  TGI: > 100 µM
PC-3 prostate
  TGI: > 100 µM
UACC-62 melanoma
  TGI: 34.1 µM
UO-31 renal
  TGI: 48.8 µM
MDA-MB-435
  TGI: 87.5 µM
SNB-19 CNS
  TGI: > 100 µM
CAKI-1 renal
  TGI: > 100 µM
EKVX NSCLC
  TGI: > 100 µM
BT-549 breast
  TGI: > 100 µM
HT29 colon
  TGI: 45.5 µM
NCI-H23 lung
  TGI: > 100 µM
SF-295 CNS
  TGI: 36.2 µM
HCT-15 colon
  TGI: > 100 µM
TK-10 renal
  TGI: 89.2 µM
U251 CNS
  TGI: > 100 µM
OVCAR-4 ovarian
  TGI: > 100 µM
OVCAR-3 ovarian
  TGI: > 100 µM
A549 NSCLC
  TGI: > 100 µM

## COc1ccc(/C=C2\CCC(C)c3c2nc(N)c(C#N)c3-c2ccc(OC)c(OC)c2)cc1OC (stereo unspecified)
MDA-N
  TGI: > 100 µM
NCI/ADR-RES ovarian
  TGI: > 100 µM
IGROV1 ovarian
  TGI: > 100 µM
K-562 leukemia
  TGI: > 100 µM
ACHN renal
  TGI: > 100 µM
LOX IMVI melanoma
  TGI: > 100 µM
KM12 colon
  TGI: > 100 µM
MCF7 breast
  TGI: > 100 µM
MDA-MB-231 breast
  TGI: > 100 µM
SN12C renal
  TGI: > 100 µM
SF-539 CNS
  TGI: > 100 µM
MALME-3M melanoma
  TGI: > 100 µM
M14 melanoma
  TGI: > 100 µM
HOP-62 NSCLC
  TGI: 9.95 µM
HCT-116 colon
  TGI: > 100 µM
RPMI-8226 leukemia
  TGI: > 100 µM
SK-MEL-28 melanoma
  TGI: > 100 µM
SK-MEL-5 melanoma
  TGI: > 100 µM
SK-MEL-2 melanoma
  TGI: > 100 µM
DU-145 prostate
  TGI: > 100 µM
MOLT-4 leukemia
  TGI: > 100 µM
HL-60(TB) leukemia
  TGI: > 100 µM
HS 578T breast
  TGI: > 100 µM
NCI-H226 lung
  TGI: > 100 µM
OVCAR-5 ovarian
  TGI: > 100 µM
SK-OV-3 ovarian
  TGI: > 100 µM
SW-620 colon
  TGI: > 100 µM
786-0 renal
  TGI: > 100 µM
UACC-257 melanoma
  TGI: 75.5 µM
COLO 205 colon
  TGI: 73.1 µM
OVCAR-8 ovarian
  TGI: > 100 µM
T-47D breast
  TGI: 6.38 µM
PC-3 prostate
  TGI: > 100 µM
UACC-62 melanoma
  TGI: > 100 µM
UO-31 renal
  TGI: > 100 µM
CCRF-CEM leukemia
  TGI: > 100 µM
MDA-MB-435
  TGI: > 100 µM
SNB-19 CNS
  TGI: > 100 µM
RXF 393 renal
  TGI: > 100 µM
CAKI-1 renal
  TGI: > 100 µM
EKVX NSCLC
  TGI: 8.53 µM
BT-549 breast
  TGI: > 100 µM
HT29 colon
  TGI: > 100 µM
NCI-H23 lung
  TGI: > 100 µM
SF-295 CNS
  TGI: > 100 µM
HCT-15 colon
  TGI: > 100 µM
TK-10 renal
  TGI: > 100 µM
U251 CNS
  TGI: > 100 µM
OVCAR-3 ovarian
  TGI: > 100 µM
SF-268 CNS
  TGI: > 100 µM

## COC1(OC)N=C(N)C2(C#N)C(C)=C3NCN(C)N=C3C12C#N (stereo unspecified)
MDA-N
  TGI: > 100 µM
NCI/ADR-RES ovarian
  TGI: > 100 µM
IGROV1 ovarian
  TGI: > 100 µM
K-562 leukemia
  TGI: > 100 µM
ACHN renal
  TGI: > 100 µM
LOX IMVI melanoma
  TGI: > 100 µM
KM12 colon
  TGI: > 100 µM
MCF7 breast
  TGI: > 100 µM
MDA-MB-231 breast
  TGI: > 100 µM
SN12C renal
  TGI: > 100 µM
SF-539 CNS
  TGI: > 100 µM
HOP-92 NSCLC
  TGI: > 100 µM
MALME-3M melanoma
  TGI: > 100 µM
M14 melanoma
  TGI: > 100 µM
A498 renal
  TGI: > 100 µM
HOP-62 NSCLC
  TGI: > 100 µM
HCT-116 colon
  TGI: > 100 µM
RPMI-8226 leukemia
  TGI: > 100 µM
SK-MEL-28 melanoma
  TGI: > 100 µM
SK-MEL-5 melanoma
  TGI: > 100 µM
SK-MEL-2 melanoma
  TGI: > 100 µM
DU-145 prostate
  TGI: > 100 µM
NCI-H522 lung
  TGI: > 100 µM
HS 578T breast
  TGI: > 100 µM
NCI-H226 lung
  TGI: > 100 µM
OVCAR-5 ovarian
  TGI: > 100 µM
SK-OV-3 ovarian
  TGI: > 100 µM
SW-620 colon
  TGI: > 100 µM
786-0 renal
  TGI: > 100 µM
UACC-257 melanoma
  TGI: > 100 µM
COLO 205 colon
  TGI: > 100 µM
OVCAR-8 ovarian
  TGI: > 100 µM
T-47D breast
  TGI: > 100 µM
PC-3 prostate
  TGI: > 100 µM
UACC-62 melanoma
  TGI: > 100 µM
UO-31 renal
  TGI: > 100 µM
MDA-MB-435
  TGI: > 100 µM
SNB-19 CNS
  TGI: > 100 µM
RXF 393 renal
  TGI: > 100 µM
CAKI-1 renal
  TGI: > 100 µM
EKVX NSCLC
  TGI: > 100 µM
HT29 colon
  TGI: > 100 µM
NCI-H23 lung
  TGI: > 100 µM
SF-295 CNS
  TGI: > 100 µM
HCT-15 colon
  TGI: > 100 µM
SNB-75 CNS
  TGI: > 100 µM
TK-10 renal
  TGI: > 100 µM
U251 CNS
  TGI: > 100 µM
HCC-2998 colon
  TGI: > 100 µM
OVCAR-3 ovarian
  TGI: > 100 µM
SF-268 CNS
  TGI: > 100 µM
A549 NSCLC
  TGI: > 100 µM

## COc1ccc2cc(CN3CCC(C4CCN(Cc5ccc6cc(OC)ccc6c5)CC4)CC3)ccc2c1
MDA-N
  TGI: 4.06 µM
NCI/ADR-RES ovarian
  TGI: 25.9 µM
IGROV1 ovarian
  TGI: 21.6 µM
K-562 leukemia
  TGI: 2.12 µM
ACHN renal
  TGI: 21.7 µM
NCI-H460 lung
  TGI: 5.04 µM
LOX IMVI melanoma
  TGI: 5.66 µM
KM12 colon
  TGI: 6.31 µM
MCF7 breast
  TGI: > 100 µM
MDA-MB-231 breast
  TGI: 9.97 µM
SN12C renal
  TGI: 24 µM
SF-539 CNS
  TGI: > 100 µM
HOP-92 NSCLC
  TGI: 8.91 µM
MALME-3M melanoma
  TGI: 4.51 µM
A498 renal
  TGI: 22.2 µM
HOP-62 NSCLC
  TGI: 22.7 µM
HCT-116 colon
  TGI: 10.6 µM
RPMI-8226 leukemia
  TGI: 4.19 µM
SK-MEL-28 melanoma
  TGI: 4.75 µM
SK-MEL-5 melanoma
  TGI: 3.12 µM
SK-MEL-2 melanoma
  TGI: 12.7 µM
DU-145 prostate
  TGI: 41.6 µM
MOLT-4 leukemia
  TGI: 5.11 µM
HL-60(TB) leukemia
  TGI: 4.31 µM
NCI-H522 lung
  TGI: 6.56 µM
HS 578T breast
  TGI: 11.8 µM
NCI-H226 lung
  TGI: 38.3 µM
OVCAR-5 ovarian
  TGI: > 76.7 µM
SK-OV-3 ovarian
  TGI: > 72.8 µM
SW-620 colon
  TGI: 7.98 µM
786-0 renal
  TGI: 4.23 µM
UACC-257 melanoma
  TGI: 3.88 µM
COLO 205 colon
  TGI: 2.98 µM
OVCAR-8 ovarian
  TGI: 19.4 µM
T-47D breast
  TGI: 4.45 µM
PC-3 prostate
  TGI: 48.7 µM
UACC-62 melanoma
  TGI: 3.74 µM
UO-31 renal
  TGI: 9.78 µM
SR leukemia
  TGI: 3.6 µM
CCRF-CEM leukemia
  TGI: 4.33 µM
MDA-MB-435
  TGI: 3.58 µM
SNB-19 CNS
  TGI: 16.6 µM
RXF 393 renal
  TGI: 11.8 µM
CAKI-1 renal
  TGI: 8.42 µM
EKVX NSCLC
  TGI: 29.8 µM
HT29 colon
  TGI: 6.64 µM
NCI-H23 lung
  TGI: 35.9 µM
SF-295 CNS
  TGI: 7.57 µM
HCT-15 colon
  TGI: 3.04 µM
SNB-75 CNS
  TGI: 11 µM
TK-10 renal
  TGI: 6.18 µM
U251 CNS
  TGI: 8.41 µM
HCC-2998 colon
  TGI: 0.367 µM
OVCAR-4 ovarian
  TGI: 18.2 µM
OVCAR-3 ovarian
  TGI: 9.74 µM
SF-268 CNS
  TGI: 10.8 µM
A549 NSCLC
  TGI: > 100 µM
